Numbered stars: 1 amine (or outer) side, 2 acyl side, 3 side chain; on linkers, the order of the positions; unused ones are H or OH. Square brackets hold non-standard residues; d marks the D form. Side chains are listed from the residue outwards. Peptide text beside a SMILES is read from it. * marks the point of attachment. C20 diacid = O=C(O)CCCCCCCCCCCCCCCCCCC(=O)*; αMePhe(2-F) = C[C@](N)(Cc1ccccc1F)C(=O)O; γGlu = O=C(O)[C@H](CCC(=O)[*:2])N[*:1]; 3Pal = N[C@@H](Cc1cccnc1)C(=O)O; αMeL = CC(C)C[C@](C)(N)C(=O)O; AEEA = NCCOCCOCC(=O)O; Aib = CC(C)(N)C(=O)O
Assays:
[1] = molecular target: T1, human GIP receptor (Homo sapiens, UniProt P48546); experiment: [125I]-GIP binding (SPA), human GIP receptor; details: read-out: hGIPR Ki, nM (SEM, n)
T1 construct: expressed in transfected cells; crude membranes
T1 sequence (P48546 22-466): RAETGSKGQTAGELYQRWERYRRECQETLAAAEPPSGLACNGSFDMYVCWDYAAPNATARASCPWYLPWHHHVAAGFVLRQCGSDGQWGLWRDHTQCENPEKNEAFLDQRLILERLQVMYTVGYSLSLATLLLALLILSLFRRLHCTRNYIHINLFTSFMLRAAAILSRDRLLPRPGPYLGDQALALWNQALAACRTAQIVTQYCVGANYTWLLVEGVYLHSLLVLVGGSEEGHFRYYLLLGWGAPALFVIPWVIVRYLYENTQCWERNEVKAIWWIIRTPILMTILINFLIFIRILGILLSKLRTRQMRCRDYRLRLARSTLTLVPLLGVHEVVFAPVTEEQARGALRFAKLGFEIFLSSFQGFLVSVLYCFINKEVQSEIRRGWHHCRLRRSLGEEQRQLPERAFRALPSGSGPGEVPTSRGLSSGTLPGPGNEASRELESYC

[2] = molecular target: T2, gastric inhibitory peptide receptor (GIPR) (Homo sapiens, UniProt P48546); experiment: cAMP pharmacological functional assay in presence of casein, hGIPR; format: cell-based; details: HEK293 cells expressing hGIPR, 0.1% Casein, geometric mean; read-out: hGIPR cAMP Rel EC50 nM (SEM, n)
T2 sequence (P48546 22-466): T1 sequence (P48546 22-466)

[3] = molecular target: human GLP-1R (Homo sapiens, UniProt P43220); experiment: [125I]-GLP-1 binding (SPA), human GLP-1 receptor; design: expressed in transfected cells; crude membranes; details: read-out: hGLP1R Ki, (nM) (SEM, n)
Procedure, shortened: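 Crude-membrane binding assay; one membrane prep included 1 mM MgCl2 and 25 units/ml DNAse I during lysis. Assay buffer at pH 7.4 contains 0.1% (w/v) bacitracin and 0.003% (w/v) TWEEN-20. Ki is reported as geometric mean.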

[4] = molecular target: T3, human Gcg receptor (Homo sapiens, UniProt P47871); experiment: [125I]-Glucagon binding (SPA), human Gcg receptor; details: read-out: hGLcgR Ki, nM (SEM, n)
T3 construct: expressed in transfected cells; crude membranes
Procedure, shortened: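 Cell pellets were lysed in hypotonic Tris buffer, pH 7.5, homogenized, and spun at low then high speed to give crude membranes. Ki was derived from the fitted IC50.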

[5] = molecular target: human GLP-1 receptor (GLP-1R) (Homo sapiens, UniProt P43220); experiment: cAMP pharmacological functional assay in presence of casein, hGLP-1R; format: cell-based; details: HEK293 cells expressing hGLP-1R, 0.1% Casein, geometric mean; read-out: hGLP1R cAMP Rel EC50 nM (SEM, n)
Sequence of human GLP-1 receptor (GLP-1R) (P43220 24-463): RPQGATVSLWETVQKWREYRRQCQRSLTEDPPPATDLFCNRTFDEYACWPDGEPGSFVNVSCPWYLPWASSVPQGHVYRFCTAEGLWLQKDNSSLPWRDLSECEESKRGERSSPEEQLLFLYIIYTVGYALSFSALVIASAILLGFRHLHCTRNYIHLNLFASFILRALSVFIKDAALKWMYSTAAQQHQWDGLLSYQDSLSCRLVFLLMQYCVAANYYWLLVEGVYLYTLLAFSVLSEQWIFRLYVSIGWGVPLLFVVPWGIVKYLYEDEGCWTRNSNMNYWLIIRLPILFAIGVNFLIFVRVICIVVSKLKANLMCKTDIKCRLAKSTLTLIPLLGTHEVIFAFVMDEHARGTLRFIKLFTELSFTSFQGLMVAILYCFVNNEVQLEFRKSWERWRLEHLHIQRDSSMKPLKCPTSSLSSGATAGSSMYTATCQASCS

T3 sequence (P47871 26-477): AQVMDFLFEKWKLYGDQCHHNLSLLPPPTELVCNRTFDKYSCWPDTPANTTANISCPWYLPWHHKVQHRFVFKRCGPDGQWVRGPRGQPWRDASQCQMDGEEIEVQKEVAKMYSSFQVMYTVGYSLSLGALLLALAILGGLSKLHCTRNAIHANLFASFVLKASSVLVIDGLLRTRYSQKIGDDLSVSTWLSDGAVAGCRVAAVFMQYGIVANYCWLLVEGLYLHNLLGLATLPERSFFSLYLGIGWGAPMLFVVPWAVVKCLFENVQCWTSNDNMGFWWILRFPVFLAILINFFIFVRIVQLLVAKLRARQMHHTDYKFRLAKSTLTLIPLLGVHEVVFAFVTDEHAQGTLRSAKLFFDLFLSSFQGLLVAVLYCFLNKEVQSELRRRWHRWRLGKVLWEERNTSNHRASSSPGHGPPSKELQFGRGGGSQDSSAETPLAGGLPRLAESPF
Sequence of human GLP-1R (P43220 24-463): as the sequence (P43220 24-463) above

SMILES	Ki [1]	EC50 [2]	Ki [3]	Ki [4]	EC50 [5]
CC[C@H](C)[C@H](NC(=O)[C@H](CC(C)C)NC(=O)[C@H](Cc1ccc(O)cc1)NC(=O)[C@H](CO)NC(=O)[C@@H](NC(=O)[C@H](Cc1ccccc1)NC(=O)[C@H](CCC(=O)O)NC(=O)C(C)(C)NC(=O)[C@H](CCC(N)=O)NC(=O)[C@H](C)NC(=O)[C@H](CCCCNC(=O)COCCOCCNC(=O)COCCOCCNC(=O)CC[C@H](NC(=O)CCCCCCCCCCCCCCCCCCC(=O)O)C(=O)O)NC(=O)[C@H](CCC(=O)O)NC(=O)[C@H](CC(=O)O)NC(=O)[C@H](CC(C)C)NC(=O)[C@](C)(CC(C)C)NC(=O)[C@@H](NC(=O)[C@H](CO)NC(=O)[C@H](Cc1ccc(O)cc1)NC(=O)[C@H](CC(=O)O)NC(=O)[C@H](CO)NC(=O)[C@@H](NC(=O)[C@](C)(Cc1ccccc1F)NC(=O)[C@@H](NC(=O)CNC(=O)[C@H](CCC(=O)O)NC(=O)C(C)(C)NC(=O)[C@@H](N)Cc1ccc(O)cc1)[C@@H](C)O)[C@@H](C)O)[C@@H](C)CC)[C@@H](C)CC)C(=O)N[C@@H](CCC(=O)O)C(=O)NCC(=O)NCC(=O)N1CCC[C@H]1C(=O)N[C@@H](CO)C(=O)N[C@@H](CO)C(=O)NCC(=O)N[C@@H](C)C(=O)N1CCC[C@H]1C(=O)N1CCC[C@H]1C(=O)N1CCC[C@H]1C(=O)N[C@@H](CO)C(N)=O [Example 150] (H-Y[Aib]EGT[αMePhe(2-F)]TSDYSI[αMeL]LDEK([AEEA-AEEA-γGlu-C20 diacid])AQ[Aib]EFISYLIEGGPSSGAPPPS-NH2)	0.0649 nM	0.0511 nM	30.5 nM	63.2 nM	0.0575 nM
CC[C@H](C)[C@H](NC(=O)[C@H](CC(C)C)NC(=O)[C@H](Cc1ccc(O)cc1)NC(=O)C(C)(C)NC(=O)[C@@H](NC(=O)[C@H](Cc1ccccc1)NC(=O)[C@H](CCC(=O)O)NC(=O)C(C)(C)NC(=O)[C@H](CCC(N)=O)NC(=O)[C@H](C)NC(=O)[C@H](CCCCNC(=O)COCCOCCNC(=O)COCCOCCNC(=O)CC[C@H](NC(=O)CCCCCCCCCCCCCCCCCCC(=O)O)C(=O)O)NC(=O)[C@H](CCC(=O)O)NC(=O)[C@H](CC(=O)O)NC(=O)[C@H](CC(C)C)NC(=O)[C@](C)(CC(C)C)NC(=O)[C@@H](NC(=O)[C@H](CO)NC(=O)[C@H](Cc1ccc(O)cc1)NC(=O)[C@H](CC(=O)O)NC(=O)[C@H](CO)NC(=O)[C@@H](NC(=O)[C@](C)(Cc1ccccc1F)NC(=O)[C@@H](NC(=O)CNC(=O)[C@H](CCC(=O)O)NC(=O)C(C)(C)NC(=O)[C@@H](N)Cc1ccc(O)cc1)[C@@H](C)O)[C@@H](C)O)[C@@H](C)CC)[C@@H](C)CC)C(=O)N[C@@H](CCC(=O)O)C(=O)NCC(=O)NCC(=O)N1CCC[C@H]1C(=O)N[C@@H](CO)C(=O)N[C@@H](CO)C(=O)NCC(=O)N[C@@H](C)C(=O)N1CCC[C@H]1C(=O)N1CCC[C@H]1C(=O)N1CCC[C@H]1C(=O)N[C@@H](CO)C(N)=O [Example 152] (H-Y[Aib]EGT[αMePhe(2-F)]TSDYSI[αMeL]LDEK([AEEA-AEEA-γGlu-C20 diacid])AQ[Aib]EFI[Aib]YLIEGGPSSGAPPPS-NH2)	0.117 nM	0.0504 nM	48 nM	93.4 nM	0.0915 nM
CC[C@H](C)[C@H](NC(=O)[C@H](CC(C)C)NC(=O)[C@H](Cc1ccc(O)cc1)NC(=O)[C@H](Cc1c[nH]cn1)NC(=O)[C@@H](NC(=O)[C@H](Cc1ccccc1)NC(=O)[C@H](CCC(=O)O)NC(=O)C(C)(C)NC(=O)[C@H](CCC(N)=O)NC(=O)[C@H](C)NC(=O)[C@H](CCCCNC(=O)COCCOCCNC(=O)COCCOCCNC(=O)CC[C@H](NC(=O)CCCCCCCCCCCCCCCCCCC(=O)O)C(=O)O)NC(=O)[C@H](CCC(=O)O)NC(=O)[C@H](CC(=O)O)NC(=O)[C@H](CC(C)C)NC(=O)[C@](C)(CC(C)C)NC(=O)[C@@H](NC(=O)[C@H](CO)NC(=O)[C@H](Cc1ccc(O)cc1)NC(=O)[C@H](CC(=O)O)NC(=O)[C@H](CO)NC(=O)[C@@H](NC(=O)[C@](C)(Cc1ccccc1F)NC(=O)[C@@H](NC(=O)CNC(=O)[C@H](CCC(=O)O)NC(=O)C(C)(C)NC(=O)[C@@H](N)Cc1ccc(O)cc1)[C@@H](C)O)[C@@H](C)O)[C@@H](C)CC)[C@@H](C)CC)C(=O)N[C@@H](CCC(=O)O)C(=O)NCC(=O)NCC(=O)N1CCC[C@H]1C(=O)N[C@@H](CO)C(=O)N[C@@H](CO)C(=O)NCC(=O)N[C@@H](C)C(=O)N1CCC[C@H]1C(=O)N1CCC[C@H]1C(=O)N1CCC[C@H]1C(=O)N[C@@H](CO)C(N)=O [Example 153] (H-Y[Aib]EGT[αMePhe(2-F)]TSDYSI[αMeL]LDEK([AEEA-AEEA-γGlu-C20 diacid])AQ[Aib]EFIHYLIEGGPSSGAPPPS-NH2; N-terminus assumed)	0.0578 nM	0.0634 nM	22.2 nM	43.8 nM	0.0904 nM
CC[C@H](C)[C@H](NC(=O)[C@H](CC(C)C)NC(=O)[C@H](Cc1ccc(O)cc1)NC(=O)[C@H](CCC(=O)O)NC(=O)[C@@H](NC(=O)[C@H](Cc1ccccc1)NC(=O)[C@H](CCC(=O)O)NC(=O)C(C)(C)NC(=O)[C@H](CCC(N)=O)NC(=O)[C@H](C)NC(=O)[C@H](CCCCNC(=O)COCCOCCNC(=O)COCCOCCNC(=O)CC[C@H](NC(=O)CCCCCCCCCCCCCCCCCCC(=O)O)C(=O)O)NC(=O)[C@H](CCC(=O)O)NC(=O)[C@H](CC(=O)O)NC(=O)[C@H](CC(C)C)NC(=O)[C@](C)(CC(C)C)NC(=O)[C@@H](NC(=O)[C@H](CO)NC(=O)[C@H](Cc1c[nH]cn1)NC(=O)[C@H](CC(=O)O)NC(=O)[C@H](CO)NC(=O)[C@@H](NC(=O)[C@](C)(Cc1ccccc1F)NC(=O)[C@@H](NC(=O)CNC(=O)[C@H](CCC(=O)O)NC(=O)C(C)(C)NC(=O)[C@@H](N)Cc1ccc(O)cc1)[C@@H](C)O)[C@@H](C)O)[C@@H](C)CC)[C@@H](C)CC)C(=O)N[C@@H](CCC(=O)O)C(=O)NCC(=O)NCC(=O)N1CCC[C@H]1C(=O)N[C@@H](CO)C(=O)N[C@@H](CO)C(=O)NCC(=O)N[C@@H](C)C(=O)N1CCC[C@H]1C(=O)N1CCC[C@H]1C(=O)N1CCC[C@H]1C(=O)N[C@@H](CO)C(N)=O [Example 154] (H-Y[Aib]EGT[αMePhe(2-F)]TSDHSI[αMeL]LDEK([AEEA-AEEA-γGlu-C20 diacid])AQ[Aib]EFIEYLIEGGPSSGAPPPS-NH2)	0.061 nM	0.0266 nM	5.64 nM	762 nM	0.0393 nM
CC[C@H](C)[C@H](NC(=O)[C@H](CC(C)C)NC(=O)[C@H](Cc1ccc(O)cc1)NC(=O)[C@H](CCC(=O)O)NC(=O)[C@@H](NC(=O)[C@H](Cc1ccccc1)NC(=O)[C@H](CCC(=O)O)NC(=O)C(C)(C)NC(=O)[C@H](CCC(N)=O)NC(=O)[C@H](C)NC(=O)[C@H](CCCCNC(=O)COCCOCCNC(=O)COCCOCCNC(=O)CC[C@H](NC(=O)CCCCCCCCCCCCCCCCCCC(=O)O)C(=O)O)NC(=O)[C@H](CCC(=O)O)NC(=O)[C@H](CC(=O)O)NC(=O)[C@H](CC(C)C)NC(=O)[C@](C)(CC(C)C)NC(=O)[C@@H](NC(=O)[C@H](CO)NC(=O)[C@H](Cc1cccnc1)NC(=O)[C@H](CC(=O)O)NC(=O)[C@H](CO)NC(=O)[C@@H](NC(=O)[C@](C)(Cc1ccccc1F)NC(=O)[C@@H](NC(=O)CNC(=O)[C@H](CCC(=O)O)NC(=O)C(C)(C)NC(=O)[C@@H](N)Cc1ccc(O)cc1)[C@@H](C)O)[C@@H](C)O)[C@@H](C)CC)[C@@H](C)CC)C(=O)N[C@@H](CCC(=O)O)C(=O)NCC(=O)NCC(=O)N1CCC[C@H]1C(=O)N[C@@H](CO)C(=O)N[C@@H](CO)C(=O)NCC(=O)N[C@@H](C)C(=O)N1CCC[C@H]1C(=O)N1CCC[C@H]1C(=O)N1CCC[C@H]1C(=O)N[C@@H](CO)C(N)=O [Example 157] (H-Y[Aib]EGT[αMePhe(2-F)]TSD[3Pal]SI[αMeL]LDEK([AEEA-AEEA-γGlu-C20 diacid])AQ[Aib]EFIEYLIEGGPSSGAPPPS-NH2)	0.0937 nM	0.0453 nM	8.97 nM	179 nM	0.0431 nM

Source: US12252524B2, “GIP/GLP1 co-agonist compounds” (Eli Lilly and Company, priority 2018, dated 2025)
